Measured values as given in DBAASP.
≈ marks a conversion by molar mass, not a printed value. Where “and” joins values, the source holds several entries; their conditions need not be identical. Equal values may be shown once.

Assays:
Assay in all cases: ≥ marks a high value that may be exact or a test limit, other limits are often not marked, values filed in µg/mL are converted to µM
[1] = tested on: Klebsiella pneumoniae ATCC 13883
[2] = tested on: Pseudomonas aeruginosa ATCC 27853
[3] = tested on: Acinetobacter baumannii ATCC 19606
[4] = tested on: Staphylococcus aureus ATCC 29213
[5] = tested on: Escherichia coli ATCC 25922
[6] = tested on: Staphylococcus aureus ATCC 6538
[7] = tested on: Pseudomonas aeruginosa ATCC 9027
[8] = tested on: Staphylococcus aureus ATCC 25923
Escherichia coli UB1005 = tested on: Escherichia coli UB1005
[9] = tested on: Pseudomonas aeruginosa PAO1

| Compound | MIC [1] [µM] | MIC [3] | MIC [5] | MIC [8] [µM] | MIC [6] [µM] | MIC [7] [µM] | further results |
| --- | --- | --- | --- | --- | --- | --- | --- |
| CC[C@H](C)[C@@H]1NC(=O)[C@H](CO)NC(=O)[C@H](C(C)C)NC(=O)[C@H]([C@@H](C)O)NC(=O)[C@H](Cc2c[nH]c3ccccc23)NC(=O)[C@@H](NC(=O)CNC(=O)[C@H](CCCCN)NC(=O)[C@H](CCCCN)NC(=O)[C@H](C)NC(=O)[C@H](C)N)CSSC[C@@H](C(=O)N[C@@H](Cc2ccccc2)C(N)=O)NC(=O)[C@@H]2CCCN2C(=O)[C@H](CCCCN)NC(=O)[C@@H]2CCCN2C(=O)[C@@H]2CCCN2C1=O [AAKKGCWTVSIPPKPCF] | 8 (≈ 14.6 µg/mL) | 16 µM (≈ 29.3 µg/mL) | 22.6 µM (≈ 41.4 µg/mL) | – | – | – | MIC [2]: 32 µM (≈ 58.6 µg/mL); MIC [4]: 16 µM (≈ 29.3 µg/mL) |
| CC(C)C[C@H](NC(=O)[C@H](C)NC(=O)[C@H](CCCCN)NC(=O)[C@H](CCCCN)NC(=O)[C@H](CC(C)C)NC(=O)[C@H](C)NC(=O)[C@H](CCCCN)NC(=O)[C@H](CC(C)C)NC(=O)[C@H](C)NC(=O)[C@H](CCCCN)NC(=O)[C@H](CCCCN)NC(=O)[C@H](CC(C)C)NC(=O)[C@H](C)NC(=O)[C@H](CC(C)C)NC(=O)[C@H](C)NC(=O)[C@@H](N)Cc1ccccc1)C(N)=O [FALALKKALKALKKAL] | – | – | – | – | 2.89 (≈ 5 µg/mL) | 28.9 (≈ 50 µg/mL) | – |
| CC(C)C[C@H](NC(=O)CNC(=O)[C@@H](NC(=O)[C@@H]1CCCN1C(=O)[C@H](CC(C)C)NC(=O)CNC(=O)[C@H](CC(N)=O)NC(=O)[C@H](CC(N)=O)NC(=O)[C@H](Cc1ccc(O)cc1)NC(=O)[C@@H](NC(=O)[C@H](CCCN=C(N)N)NC(=O)[C@H](CS)NC(=O)[C@H](CCCN=C(N)N)NC(=O)[C@H](Cc1cnc[nH]1)NC(=O)[C@@H](N)CCCCN)C(C)C)[C@@H](C)O)C(=O)N[C@@H](Cc1ccc(O)cc1)C(=O)N[C@@H](CCCN=C(N)N)C(=O)N[C@@H](Cc1c[nH]c2ccccc12)C(=O)N[C@@H](CS)C(N)=O [KHRCRVYNNGLPTGLYRWC] | – | – | – | – | 4.8 (≈ 11.2 µg/mL) | – | – |
| CC(C)C[C@H](NC(=O)[C@H](CCCN=C(N)N)NC(=O)[C@H](CCCN=C(N)N)NC(=O)[C@H](C)NC(=O)[C@H](Cc1c[nH]c2ccccc12)NC(=O)CNC(=O)[C@H](CCCN=C(N)N)NC(=O)[C@@H](N)CCCN=C(N)N)C(=O)N[C@@H](C)C(=O)N[C@@H](Cc1ccccc1)C(=O)N[C@@H](C)C(=O)N[C@@H](Cc1ccccc1)C(=O)NCC(=O)N[C@@H](CCCN=C(N)N)C(=O)N[C@@H](CCCN=C(N)N)C(N)=O [RRGWARRLAFAFGRR] | 30 (≈ 56.3 µg/mL) | 13.8 µM and 22 µM | 12.5 µM and 30 µM | > 30 | – | – | – |
| CC(C)C[C@H](NC(=O)[C@H](C)NC(=O)[C@H](CCCCN)NC(=O)[C@H](CCCCN)NC(=O)[C@H](CC(C)C)NC(=O)[C@H](C)NC(=O)[C@H](CCCCN)NC(=O)[C@H](CCCCN)NC(=O)[C@H](CC(C)C)NC(=O)[C@H](CCCCN)NC(=O)[C@H](CCCCN)NC(=O)[C@H](CC(C)C)NC(=O)[C@H](C)NC(=O)[C@H](CCCCN)NC(=O)[C@H](CCCCN)NC(=O)[C@H](CC(C)C)NC(=O)[C@H](C)NC(=O)[C@H](CCCCN)NC(=O)[C@H](CC(C)C)NC(=O)[C@H](C)NC(=O)[C@H](CC(C)C)NC(=O)[C@H](C)NC(=O)[C@@H](N)C(C)C)C(N)=O [VALALKALKKALKKLKKALKKAL] | – | – | – | – | > 80.3 | > 80.3 | – |
| CC(C)C[C@H](NC(=O)[C@H](Cc1ccc(O)cc1)NC(=O)[C@@H]1CCCN1C(=O)[C@@H]1CCCN1C(=O)[C@H](CCCCN)NC(=O)[C@H](CC(=O)O)NC(=O)[C@@H](N)C(C)C)C(=O)N1CCC[C@H]1C(=O)N[C@@H](CCCN=C(N)N)C(=O)N1CCC[C@H]1C(=O)N[C@@H](CCCN=C(N)N)C(=O)N1CCC[C@H]1C(=O)N1CCC[C@H]1C(=O)N[C@@H](CCCN=C(N)N)C(=O)N[C@@H](CCCN=C(N)N)C(=O)N[C@@H](CCCCN)C(=O)N[C@@H](Cc1ccc(O)cc1)C(=O)N[C@@H](CC(N)=O)C(=O)N[C@@H](CCCN=C(N)N)C(N)=O [VDKPPYLPRPRPPRRKYNR] | – | – | – | 13.3 (≈ 32 µg/mL) | – | – | MIC (Escherichia coli UB1005): 1.04 µM (≈ 2.5 µg/mL); MIC [9]: 26.6 µM (≈ 64 µg/mL) |
